What was measured:
[1] = system: rhythmic bladder voiding contractions; test: Volume-induced rhythmic bladder voiding contractions in anaesthetized rats; format: in vivo; conditions: for AMPLITUDE mm Hg before treatment / FREQUENCY No. contr./15 min before treatment: baseline; for AMPLITUDE mm Hg before treatment / AMPLITUDE mm Hg after treatment: animals with frequency reduction <50%; for AMPLITUDE mm Hg before treatment / FREQUENCY No. contr./15 min before treatment / AMPLITUDE mm Hg after treatment / FREQUENCY No. contr./15 min after treatment: mean±S.E.; for BLADDER CONTRACTIONS Disappearance time: duration of bladder quiescence, mean (S.E. in next cell)
Description: Female Sprague Dawley rats weighing 225-275 g (Crl: CD° BR, Charles River Italia) were used. The animals were housed with free access to food and water and were maintained on a forced 12 h alternating light-dark cycle at 22-24°C for at least one week, except during the experiment. The activity on the rhythmic bladder voiding contractions was evaluated according to the method of Dray (J. Pharmcol. Methods, 13:157, 1985), with some modifications as in Guarneri (Phannacol. Res., 27:173, 1993). […] The catheter was tied in place with a ligature around the external urethral orifice and was connected with conventional pressure transducers (Statham P23 ID/P23 XL). […] The bladder was then filled via the recording catheter by incremental volumes of warm (37°C) saline until reflex bladder voiding contractions occurred (usually 0.8-1.5 ml). Two parameters were recorded from the cystometrogram: the frequency of voiding contractions, calculated by counting the number of peaks/15 min of observation, and the mean amplitude of these contractions (mean height of the peaks in mmHg) in the same time period. For intravenous (i. v. ) injection of bioactive compounds, a PE 50 polyethylene tubing filled with physiological saline was inserted into the jugular vein.
Bioactivity was assessed in individual animals (using 6-10 rats per dose), by recording the number and height of the peaks for 15 min after drug injection and comparing them with those previously recorded for 15 min after the intravenous administration of vehicle alone. […] The statistical significance of changes in frequency and amplitude before and after treatment was assessed by Student's t test for paired data. Changes showing a probability P<0.01 were considered significant.
An all-or-none criterion was also used to compare bioactivity in terms of ED50 values. Rats showing a treatment-related change of ≥30% relative to the basal value were considered to be positive. Quantal dose-response curves and ED50 values were evaluated by the method of Bliss (J. Pharm. Pharmacol., 11:192, 1938).
The rapid distension of the urinary bladder in urethane-anaesthetized rats produced a series of rhythmic bladder voiding contractions whose characteristics have been described (Maggie et al., Brain Res., 380, 83, 1986; Maggi, et al., J. Pharmacol. Exp. Ther., 230, 500, 1984). The frequency of these contractions is related to the sensory afferent arm of reflex micturition and to the integrity of the micturition centre, while their amplitude is a property of the efferent arm of the reflex (Maggi et al., J. Pharmacol. Meth., 15, 157, 1986; Maggi et al., Brain Res.. 415, 1, 1987; Maggi et al., Naun. Schmied. Arch. Pharmacol., 332, 276, 1986; Maggi et al., J. Urol., 136, 696, 1986).

[2] = molecular target: α1-adrenergic receptor; test: [3H]prazosin binding (α1-receptors), rat cerebral cortices; conditions: 0.35 nM [3H]prazosin, read-out: Binding affinity for the α1-adrenergic receptor, Ki
Description: [^3H]prazosin binding (α1-receptors):
Rat cerebral cortices were homogenized in 50 volumes of ice-cold 50 mM Tris-HCl pH 7.4. The homogenates were centrifuged at 48,000 x g for 10 minutes, and the pellets were resuspended in the same volume of ice-cold buffer, centrifuged, and resuspended two more times. The final pellets were resuspended in 100 volumes of 50 mM Tris-HCl, pH 7.4, containing 0.1 % ascorbic acid and 10 µM pargyline. […] Non-specific binding was determined in the presence of 10 µM phentolamine. The incubations were terminated by rapid filtration through Whatman GF/B filters using a Brandel cell harvester, after which the filters were washed with 3x3 ml of ice-cold buffer. The radioactivity retained on the filters was determined by liquid scintillation counting.

Structure (SMILES): COc1ccccc1N1CCN(CCN(C(=O)C2CCCCC2)c2ccccn2)CC1 [Compound A, N-{2-[4-(2-methoxyphenyl)-1-piperazinyl]-ethyl}-N-(2-pyridyl)-cyclohexanecarboxamide]
- AMPLITUDE mm Hg before treatment ([1]; 1 µg/kg i.v. group): 25.4±2.0 mm Hg
- FREQUENCY No. contr./15 min before treatment ([1]; 1 µg/kg i.v. group): 11.7±1.0 No. contr./15 min
- AMPLITUDE mm Hg after treatment ([1]; 1 µg/kg i.v.): 23.1±1.9 mm Hg
- BLADDER CONTRACTIONS Disappearance time ([1]; 1 µg/kg i.v.): 1.34 min
- FREQUENCY No. contr./15 min after treatment ([1]; 1 µg/kg i.v.): 11.6±1.3 No. contr./15 min
- AMPLITUDE mm Hg before treatment ([1]; 3 µg/kg i.v. group): 25.1±2.2 mm Hg
- FREQUENCY No. contr./15 min before treatment ([1]; 3 µg/kg i.v. group): 11.5±0.7 No. contr./15 min
- AMPLITUDE mm Hg after treatment ([1]; 3 µg/kg i.v.): 21.7±2.0 mm Hg
- BLADDER CONTRACTIONS Disappearance time ([1]; 3 µg/kg i.v.): 2.15 min
- FREQUENCY No. contr./15 min after treatment ([1]; 3 µg/kg i.v.): 9.1±1.0 No. contr./15 min
- AMPLITUDE mm Hg before treatment ([1]; 10 µg/kg i.v. group): 26.0±3.8 mm Hg
- FREQUENCY No. contr./15 min before treatment ([1]; 10 µg/kg i.v. group): 11.5±1.5 No. contr./15 min
- AMPLITUDE mm Hg after treatment ([1]; 10 µg/kg i.v.): 22.3±3.8 mm Hg
- BLADDER CONTRACTIONS Disappearance time ([1]; 10 µg/kg i.v.): 8.13 min
- FREQUENCY No. contr./15 min after treatment ([1]; 10 µg/kg i.v.): 5.9±1.6 No. contr./15 min
- AMPLITUDE mm Hg before treatment ([1]; 30 µg/kg i.v. group): 28.5±2.5 mm Hg
- FREQUENCY No. contr./15 min before treatment ([1]; 30 µg/kg i.v. group): 11.8±0.7 No. contr./15 min
- AMPLITUDE mm Hg after treatment ([1]; 30 µg/kg i.v.): 25.0±4.0 mm Hg
- BLADDER CONTRACTIONS Disappearance time ([1]; 30 µg/kg i.v.): 8.87 min
- FREQUENCY No. contr./15 min after treatment ([1]; 30 µg/kg i.v.): 3.8±0.7 No. contr./15 min
- AMPLITUDE mm Hg before treatment ([1]; 100 µg/kg i.v. group): 28.0±4.6 mm Hg
- FREQUENCY No. contr./15 min before treatment ([1]; 100 µg/kg i.v. group): 12.0±0.9 No. contr./15 min
- AMPLITUDE mm Hg after treatment ([1]; 100 µg/kg i.v.): 25.7±2.9 mm Hg
- BLADDER CONTRACTIONS Disappearance time ([1]; 100 µg/kg i.v.): 12.56 min
- FREQUENCY No. contr./15 min after treatment ([1]; 100 µg/kg i.v.): 4.1±1.1 No. contr./15 min
- FREQUENCY No. contr./15 min before treatment ([1]; 300 µg/kg i.v. group): 9.5±0.6 No. contr./15 min
- BLADDER CONTRACTIONS Disappearance time ([1]; 300 µg/kg i.v.): 13.37 min
- FREQUENCY No. contr./15 min after treatment ([1]; 300 µg/kg i.v.): 2.2±0.5 No. contr./15 min
- ED (10 min disappearance of contractions) ([1]; Rattus norvegicus, iv, 10 min, extrapolated dose inducing 10 min of disappearance of the contractions, linear regression): 0.037 mg/kg
- maximal change of amplitude of the rhythmic bladder voidings ([1]; i.v., no dose-dependence observed): about 13%
- Ki [2]: 296 nM

Structure (SMILES): CCN(CC)CC#CCOC(=O)C(O)(c1ccccc1)C1CCCCC1 (stereo not shown) [Oxybutynin, oxybutynin]
- AMPLITUDE mm Hg before treatment ([1]; 30 µg/kg i.v. group): 26.7±2.7 mm Hg
- FREQUENCY No. contr./15 min before treatment ([1]; 30 µg/kg i.v. group): 14.8±1.9 No. contr./15 min
- AMPLITUDE mm Hg after treatment ([1]; 30 µg/kg i.v.): 23.3±2.5 mm Hg
- FREQUENCY No. contr./15 min after treatment ([1]; 30 µg/kg i.v.): 15.5±2.3 No. contr./15 min
- AMPLITUDE mm Hg before treatment ([1]; 100 µg/kg i.v. group): 25.0±3.7 mm Hg
- FREQUENCY No. contr./15 min before treatment ([1]; 100 µg/kg i.v. group): 13.3±1.1 No. contr./15 min
- AMPLITUDE mm Hg after treatment ([1]; 100 µg/kg i.v.): 18.7±2.7 mm Hg
- FREQUENCY No. contr./15 min after treatment ([1]; 100 µg/kg i.v.): 14.7±1.0 No. contr./15 min
- AMPLITUDE mm Hg before treatment ([1]; 300 µg/kg i.v. group): 20.9±1.7 mm Hg
- FREQUENCY No. contr./15 min before treatment ([1]; 300 µg/kg i.v. group): 10.1±0.7 No. contr./15 min
- AMPLITUDE mm Hg after treatment ([1]; 300 µg/kg i.v.): 13.6±0.8 mm Hg
- FREQUENCY No. contr./15 min after treatment ([1]; 300 µg/kg i.v.): 8.8±0.8 No. contr./15 min
- AMPLITUDE mm Hg before treatment ([1]; 1000 µg/kg i.v. group): 20.3±2.4 mm Hg
- FREQUENCY No. contr./15 min before treatment ([1]; 1000 µg/kg i.v. group): 9.7±0.8 No. contr./15 min
- AMPLITUDE mm Hg after treatment ([1]; 1000 µg/kg i.v.): 11.8±1.2 mm Hg
- FREQUENCY No. contr./15 min after treatment ([1]; 1000 µg/kg i.v.): 9.5±0.8 No. contr./15 min
- AMPLITUDE mm Hg before treatment ([1]; 3000 µg/kg i.v. group): 18.0±1.4 mm Hg
- FREQUENCY No. contr./15 min before treatment ([1]; 3000 µg/kg i.v. group): 10.0±0.7 No. contr./15 min
- AMPLITUDE mm Hg after treatment ([1]; 3000 µg/kg i.v.): 10.8±1.0 mm Hg
- FREQUENCY No. contr./15 min after treatment ([1]; 3000 µg/kg i.v.): 9.9±1.5 No. contr./15 min
- ED50 ([1]; Rattus norvegicus, iv, read-out: ED50 AMPLITUDE (and 95% confidence limits)): 0.24 mg/kg

From EP0906100B1, “USE OF 5-HT 1A? RECEPTOR ANTAGONISTS FOR THE TREATMENT OF URINARY INCONTINENCE” (RECORDATI S.A., priority 1996, dated 1997)
